Assay [1] can be described thus: P. falciparum Dd2 growth inhibitors, dose response, SYBR Green, cherry-picked samples (AID 1159567). Type of assay: functional, cell-based.
Assay [2] concerns the target Cytochrome P450 3A4 (Homo sapiens, UniProt P08684).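 Also: CYP3A4 tested as one member of a cytochrome P450 panel screen.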
Assay [3] has as its target T1, Cytochrome P450 1A2 (Homo sapiens, UniProt P05177).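 Also: PubChem cytochrome P450 panel assay, CYP1A2 panel member.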
T1 sequence (P05177 whole entry): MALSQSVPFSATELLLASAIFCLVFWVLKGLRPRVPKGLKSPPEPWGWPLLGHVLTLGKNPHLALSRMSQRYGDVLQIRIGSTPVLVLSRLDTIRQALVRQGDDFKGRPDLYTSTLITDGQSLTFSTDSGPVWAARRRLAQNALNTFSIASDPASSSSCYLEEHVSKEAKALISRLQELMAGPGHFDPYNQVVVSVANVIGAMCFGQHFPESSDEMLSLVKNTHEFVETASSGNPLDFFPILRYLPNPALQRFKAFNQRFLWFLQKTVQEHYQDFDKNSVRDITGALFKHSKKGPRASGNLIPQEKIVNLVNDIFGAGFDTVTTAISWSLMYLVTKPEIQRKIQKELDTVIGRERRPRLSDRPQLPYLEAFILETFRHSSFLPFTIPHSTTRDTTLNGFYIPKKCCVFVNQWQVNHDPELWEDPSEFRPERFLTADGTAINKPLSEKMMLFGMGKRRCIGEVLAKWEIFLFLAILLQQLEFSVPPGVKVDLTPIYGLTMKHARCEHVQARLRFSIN

The target in assay [4] is T2, Rac GTPase-activating protein 1 (Homo sapiens, UniProt Q9H0H5).
T2 sequence (Q9H0H5 whole entry): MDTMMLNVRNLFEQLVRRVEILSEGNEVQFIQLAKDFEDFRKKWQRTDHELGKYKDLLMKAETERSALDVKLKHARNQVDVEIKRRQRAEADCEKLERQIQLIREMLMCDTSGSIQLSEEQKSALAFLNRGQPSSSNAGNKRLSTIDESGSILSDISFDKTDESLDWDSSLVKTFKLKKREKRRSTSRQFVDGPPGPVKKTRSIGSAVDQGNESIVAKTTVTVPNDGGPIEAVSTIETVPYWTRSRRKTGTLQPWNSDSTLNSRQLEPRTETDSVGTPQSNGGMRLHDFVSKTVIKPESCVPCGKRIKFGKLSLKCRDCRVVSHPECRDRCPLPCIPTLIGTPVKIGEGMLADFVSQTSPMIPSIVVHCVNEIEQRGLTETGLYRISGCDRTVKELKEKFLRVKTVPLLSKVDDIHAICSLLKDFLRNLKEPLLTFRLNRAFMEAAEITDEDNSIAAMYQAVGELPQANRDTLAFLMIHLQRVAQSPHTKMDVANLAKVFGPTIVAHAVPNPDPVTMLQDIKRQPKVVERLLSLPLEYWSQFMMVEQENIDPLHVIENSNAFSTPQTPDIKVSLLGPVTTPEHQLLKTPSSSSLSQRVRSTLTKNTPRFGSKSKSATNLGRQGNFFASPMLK
Description: blockers of MgcRacGAP-driven Rac1 GTP hydrolysis – biochemical, ADP Hunter fluorescence, primary and confirmatory, confirmation (AID 624330). In kind it is functional.

Assay [5] in a line: THP-1 cell cytotoxicity, dose response, cytotoxicity control for non-replicating M. tuberculosis project (AID 489025). Type of assay: functional.
The nature of assay [6]: microbe, parasite or virus in culture. Type of assay: functional. To be noted: Mycobacterium tuberculosis.
Assay [7] in a line: cells. Type of assay: functional.
Assay [8] deals with INS1. The experiment in a line: INS-1E survival protection against cytokine death – cell-based, luminescence, retest, dose response (AID 449756).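 Also: cell death triggered by IL-1 beta plus TNF-alpha plus IFN-gamma mixture; protective hits raise ATP signal compared with cytokine alone wells.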 In kind it is functional. To be noted: Rattus norvegicus.
In assay [9] the target is T3, Protein skinhead-1 (Caenorhabditis elegans, UniProt P34707).
T3 sequence (P34707 whole entry): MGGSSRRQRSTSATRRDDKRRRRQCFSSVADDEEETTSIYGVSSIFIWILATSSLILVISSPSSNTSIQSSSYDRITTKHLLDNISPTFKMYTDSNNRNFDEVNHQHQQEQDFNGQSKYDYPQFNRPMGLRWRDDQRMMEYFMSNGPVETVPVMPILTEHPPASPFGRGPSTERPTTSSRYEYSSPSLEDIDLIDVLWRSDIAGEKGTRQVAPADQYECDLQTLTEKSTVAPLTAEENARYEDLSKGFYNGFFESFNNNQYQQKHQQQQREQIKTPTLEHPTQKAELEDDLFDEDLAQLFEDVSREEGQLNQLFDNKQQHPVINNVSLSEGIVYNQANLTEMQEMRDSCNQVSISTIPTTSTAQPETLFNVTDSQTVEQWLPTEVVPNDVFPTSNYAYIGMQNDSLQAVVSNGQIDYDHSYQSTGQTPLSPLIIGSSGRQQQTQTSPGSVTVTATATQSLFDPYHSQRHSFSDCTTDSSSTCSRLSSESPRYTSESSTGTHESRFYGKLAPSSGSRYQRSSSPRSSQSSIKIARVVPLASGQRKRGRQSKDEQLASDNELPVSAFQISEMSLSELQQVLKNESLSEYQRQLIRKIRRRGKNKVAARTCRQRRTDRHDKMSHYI
Type of assay: functional.

For assay [10], the target named is T4, Ubiquitin-conjugating enzyme E2 N (Homo sapiens, UniProt P61088).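 Also: Dose-response confirmation in a TR-FRET assay detecting UBC13-driven polyubiquitin chain formation, inhibition measured.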
T4 sequence (P61088 whole entry): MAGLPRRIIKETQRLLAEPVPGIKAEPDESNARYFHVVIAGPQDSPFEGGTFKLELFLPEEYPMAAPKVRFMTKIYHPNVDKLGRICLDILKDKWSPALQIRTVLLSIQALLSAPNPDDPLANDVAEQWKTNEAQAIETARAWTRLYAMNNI
Type of assay: functional.

Assay [11] addresses T5, Short transient receptor potential channel 4 (Mus musculus, UniProt Q9QUQ5).
T5 sequence (Q9QUQ5 whole entry): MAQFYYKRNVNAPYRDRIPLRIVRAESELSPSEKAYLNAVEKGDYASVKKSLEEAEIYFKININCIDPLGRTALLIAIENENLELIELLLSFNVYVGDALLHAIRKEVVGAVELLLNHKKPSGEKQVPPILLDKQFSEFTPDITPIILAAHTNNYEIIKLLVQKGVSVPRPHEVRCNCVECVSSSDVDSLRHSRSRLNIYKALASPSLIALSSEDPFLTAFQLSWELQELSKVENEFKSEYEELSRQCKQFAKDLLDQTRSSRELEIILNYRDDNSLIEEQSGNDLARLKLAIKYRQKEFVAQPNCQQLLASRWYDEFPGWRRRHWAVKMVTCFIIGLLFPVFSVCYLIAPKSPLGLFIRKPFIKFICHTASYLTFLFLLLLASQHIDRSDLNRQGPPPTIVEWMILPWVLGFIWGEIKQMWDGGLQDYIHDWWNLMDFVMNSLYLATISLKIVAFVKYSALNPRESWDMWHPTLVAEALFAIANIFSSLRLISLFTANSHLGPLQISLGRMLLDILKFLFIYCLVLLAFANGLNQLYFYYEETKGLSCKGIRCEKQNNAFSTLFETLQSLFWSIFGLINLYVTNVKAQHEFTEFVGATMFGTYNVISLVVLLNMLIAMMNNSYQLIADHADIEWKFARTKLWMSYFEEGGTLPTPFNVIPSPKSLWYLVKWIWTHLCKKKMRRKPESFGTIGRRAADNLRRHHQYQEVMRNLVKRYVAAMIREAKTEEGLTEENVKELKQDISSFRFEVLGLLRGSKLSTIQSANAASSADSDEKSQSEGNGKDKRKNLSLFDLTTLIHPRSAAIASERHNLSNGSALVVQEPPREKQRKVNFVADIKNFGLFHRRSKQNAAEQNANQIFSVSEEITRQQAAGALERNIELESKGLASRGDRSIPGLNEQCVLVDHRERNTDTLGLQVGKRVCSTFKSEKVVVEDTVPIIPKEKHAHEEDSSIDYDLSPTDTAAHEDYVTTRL
The experiment in a line: block of DAMGO-driven TRPC4 calcium entry – cell-based, HEK293 TRPC4/mu-opioid, Fluo-4 calcium, dose response (AID 434942).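 Also: potency of inhibitors blocking the TRPC4 calcium response.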 Type of assay: functional.

Assay [12] can be described thus: Luminescence Cell-Based Dose Response HTS to Identify Activators of Luciferase Translation or Activity in H4 […] Cells. [Related pubchem assays: 1829 (Project Summary), 1814 (Primary HTS)]. In kind it is functional.
For assay [13], the target named is Luciferin 4-monooxygenase (Photinus pyralis, UniProt P08659). Description: inhibition of purified Photinus pyralis luciferase – biochemical, luminescence, dose response (AID 1891).
A short description of assay [14]: Luminescence Cell-Based Dose Confirmation HTS to Identify Inhibitors of Platelet Dense Granule Release. [Related pubchem assays: 1663 (Primary HTS), 1678 (Summary of Project)]. Type of assay: functional.
The target in assay [15] is Cytochrome P450 2C19 (Homo sapiens, UniProt P33261). Description: Cytochrome panel assay with activity outcomes. Panel member name: p450-cyp2c19 Compounds with AC50 equal or less than 10 uM are considered active. In kind it is functional. To be noted: read-out: AC50.
Assay [16] deals with Cytochrome P450 2D6 (Homo sapiens, UniProt P10635).
Assay [17] has as its target Cytochrome P450 2C9 (Homo sapiens, UniProt P11712).

Broadly, the AC50 is the concentration giving half of the maximal activity seen. As usually defined, the IC50 is the point on the concentration scale where inhibition reaches its midpoint. As a reminder, the EC50 is the concentration at which the effect is half-maximal.

Activity calls are given as the source filed them.

Sequence of Cytochrome P450 2C19 (P33261 whole entry): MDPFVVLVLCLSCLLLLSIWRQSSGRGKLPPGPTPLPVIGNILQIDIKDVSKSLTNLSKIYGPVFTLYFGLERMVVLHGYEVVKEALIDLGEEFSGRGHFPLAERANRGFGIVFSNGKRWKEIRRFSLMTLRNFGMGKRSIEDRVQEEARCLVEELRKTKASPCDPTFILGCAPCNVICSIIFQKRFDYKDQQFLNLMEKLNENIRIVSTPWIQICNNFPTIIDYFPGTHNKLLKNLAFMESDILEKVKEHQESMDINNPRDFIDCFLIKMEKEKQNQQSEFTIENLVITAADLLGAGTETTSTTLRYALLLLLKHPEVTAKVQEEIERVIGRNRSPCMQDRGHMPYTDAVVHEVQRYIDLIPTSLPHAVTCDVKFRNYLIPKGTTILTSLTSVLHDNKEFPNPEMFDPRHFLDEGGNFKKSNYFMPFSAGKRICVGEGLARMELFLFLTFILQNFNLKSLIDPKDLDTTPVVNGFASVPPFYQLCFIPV
Sequence of Luciferin 4-monooxygenase (P08659 whole entry): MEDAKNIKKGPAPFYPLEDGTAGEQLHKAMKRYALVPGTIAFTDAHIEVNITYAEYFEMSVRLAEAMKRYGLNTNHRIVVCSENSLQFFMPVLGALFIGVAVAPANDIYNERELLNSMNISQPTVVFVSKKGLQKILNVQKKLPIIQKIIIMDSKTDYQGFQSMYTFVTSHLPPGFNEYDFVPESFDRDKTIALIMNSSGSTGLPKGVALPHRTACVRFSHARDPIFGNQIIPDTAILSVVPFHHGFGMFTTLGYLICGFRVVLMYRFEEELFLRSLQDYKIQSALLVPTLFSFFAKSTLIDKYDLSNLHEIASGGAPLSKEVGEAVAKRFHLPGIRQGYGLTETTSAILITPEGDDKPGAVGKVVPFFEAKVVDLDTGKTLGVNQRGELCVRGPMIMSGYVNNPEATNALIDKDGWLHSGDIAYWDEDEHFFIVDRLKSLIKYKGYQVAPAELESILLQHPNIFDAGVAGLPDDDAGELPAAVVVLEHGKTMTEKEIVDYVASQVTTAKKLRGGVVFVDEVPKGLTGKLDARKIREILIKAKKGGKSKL
Sequence of Cytochrome P450 2D6 (P10635 whole entry): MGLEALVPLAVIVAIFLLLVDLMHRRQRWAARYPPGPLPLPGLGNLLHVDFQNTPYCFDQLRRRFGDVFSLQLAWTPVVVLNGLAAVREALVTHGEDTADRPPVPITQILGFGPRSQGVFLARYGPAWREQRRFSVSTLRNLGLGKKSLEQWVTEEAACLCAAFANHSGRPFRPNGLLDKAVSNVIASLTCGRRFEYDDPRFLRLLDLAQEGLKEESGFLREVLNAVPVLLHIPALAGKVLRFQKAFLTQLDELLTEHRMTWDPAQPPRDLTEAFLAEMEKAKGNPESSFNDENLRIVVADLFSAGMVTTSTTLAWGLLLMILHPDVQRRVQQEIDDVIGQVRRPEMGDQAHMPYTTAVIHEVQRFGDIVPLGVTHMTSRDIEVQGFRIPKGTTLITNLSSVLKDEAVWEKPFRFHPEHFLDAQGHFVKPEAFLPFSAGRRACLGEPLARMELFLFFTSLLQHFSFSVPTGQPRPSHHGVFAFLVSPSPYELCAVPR
Sequence of Cytochrome P450 2C9 (P11712 whole entry): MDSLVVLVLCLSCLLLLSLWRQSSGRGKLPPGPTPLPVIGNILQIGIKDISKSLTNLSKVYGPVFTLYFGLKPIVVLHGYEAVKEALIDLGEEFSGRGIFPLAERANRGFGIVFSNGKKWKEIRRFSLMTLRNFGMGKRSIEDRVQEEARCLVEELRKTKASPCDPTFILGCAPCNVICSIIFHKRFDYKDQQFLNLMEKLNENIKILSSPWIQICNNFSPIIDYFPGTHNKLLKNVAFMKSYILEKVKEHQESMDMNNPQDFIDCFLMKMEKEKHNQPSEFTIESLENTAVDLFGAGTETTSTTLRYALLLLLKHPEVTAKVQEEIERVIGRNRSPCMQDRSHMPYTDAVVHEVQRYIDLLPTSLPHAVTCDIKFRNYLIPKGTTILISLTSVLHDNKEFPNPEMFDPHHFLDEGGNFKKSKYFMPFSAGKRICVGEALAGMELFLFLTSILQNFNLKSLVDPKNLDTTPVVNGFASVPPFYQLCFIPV
Sequence of Cytochrome P450 3A4 (P08684 whole entry): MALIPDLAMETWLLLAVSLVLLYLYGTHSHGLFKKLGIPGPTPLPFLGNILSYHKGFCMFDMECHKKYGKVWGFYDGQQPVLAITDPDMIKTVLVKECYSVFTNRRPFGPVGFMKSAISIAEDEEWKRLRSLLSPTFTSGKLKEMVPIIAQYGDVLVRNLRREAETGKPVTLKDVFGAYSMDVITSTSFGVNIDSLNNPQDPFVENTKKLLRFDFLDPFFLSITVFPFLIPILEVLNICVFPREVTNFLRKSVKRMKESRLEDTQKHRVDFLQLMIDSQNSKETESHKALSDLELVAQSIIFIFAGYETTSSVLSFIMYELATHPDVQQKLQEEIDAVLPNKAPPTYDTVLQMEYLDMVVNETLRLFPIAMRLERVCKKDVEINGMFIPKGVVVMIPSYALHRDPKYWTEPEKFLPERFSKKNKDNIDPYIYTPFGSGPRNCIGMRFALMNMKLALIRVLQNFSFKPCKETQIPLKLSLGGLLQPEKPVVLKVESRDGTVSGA

For the compound `CCC(=O)N1CCCCN2[C@H](C1)[C@H](c1ccc(-c3cccnc3)cc1)[C@@H]2CO`, in assay [1], the AC50 was 21.9 µM (active). As to `Oc1ccc(CCNCc2cc3c(cc2Br)OCO3)cc1`, the AC50 in assay [2] is 3.98 µM (inconclusive); in [3], 1 µM (inconclusive). Consider `O=S(=O)(O)c1ccc2c(/N=N\c3cccc4ccccc34)c(O)c(S(=O)(=O)O)cc2c1`, for which the AC50 in assay [3] was 5.01 µM (inconclusive). For the compound `CCN(Cc1ccccc1)c1ccc(/C=N/N2CCOCC2)cc1`, in assay [4], the IC50 was 63.2 µM (active).

Take `CCn1c2ccccc2c2cc(N)ccc21`: the 50% inhibitory concentration (IC50) in assay [4] is 64.1 µM (active).

As for `Nc1nc2ccccc2n1CCOc1ccccc1Cl`, the CC50 in [5] is 20.6 µM (active); in assay [6] it was > 40 µM (active). The IC50 in assay [7] was 23.8 µM (active). On to `c1ccc(C2(Cn3ccc4ccccc43)OCCO2)cc1`, for which, in [8], the AC50 is 40.2 µM (active). Also, the IC50 in [9] is > 100 µM (inactive).

For `O=C(C[n+]1cccc(CNC(=O)c2ccc(OC(F)F)cc2)c1)Nc1ccc(SC(F)F)cc1`, the IC50 in assay [10] is > 20 µM (inactive). Also, in assay [11], the EC50 was 7.5 µM (active). Turning to `N/C(=N\N=C\c1ccc(O)cc1)c1nonc1N`, the results for the EC50 in [12], in [13] and in [14] were 0.334 µM (active), 8.45 µM (active) and 1.07 µM (active), respectively. Besides, the IC50 in assay [4] was 23.4 µM (active).

For the compound `CC(C)C1NC(=S)N(Cc2ccccc2)C1=O` (stereo not given), the AC50 in [3] is 20 µM (inconclusive). Take `CCCCCNC(=O)c1ccccc1SC`: the IC50 in assay [9] was 74.6 µM (inactive).

As for `COc1ccccc1NC(=O)N1CCCCN2[C@H](C1)[C@H](c1ccc(C#CC3CC3)cc1)[C@@H]2CO`, the AC50 in [1] was 5.95 µM (active).

As for `O=C(c1cccc(F)c1)N1CCC2(CCCN(C(c3ccccc3)c3ccccc3)C2)CC1`, the AC50 in assay [3] was 6.31 µM (inconclusive); in [15], 5.01 µM (inconclusive); in assay [16], 10 µM (inconclusive). As to `O=C1C(=Cc2ccccn2)CCc2ccccc21`, the IC50 in assay [9] was 43.7 µM (active).

Take `C[C@@H]1CN([C@@H](C)CO)S(=O)(=O)c2ccc(C#CC3(O)CCCC3)cc2O[C@H]1CN(C)C(=O)c1ccccc1`: in assay [1], the AC50 is 4.33 µM (active). For the compound `CC[N+](C)(CC)CCOC(=O)C1c2ccccc2Oc2ccccc21` [METHANTHELINE], in [3], the AC50 was 10 µM (inconclusive). On to `O=C(Nc1cnn(Cc2ccc(Cl)cc2)c1)c1ccc([N+](=O)[O-])cc1`, for which the AC50 is 6.31 µM (inconclusive) in assay [3], 2.24 µM (inconclusive) in assay [15] and 0.501 µM (inconclusive) in assay [17]. Consider `CC(C)(C)NC(=O)CN(C(=O)CCC(=O)Nc1nccs1)c1cccc(C(F)(F)F)c1`, for which, in [9], the IC50 was > 100 µM (inactive). On the same count and under the same terms, as for `CC1(C(=O)Nc2cnc3ccccc3c2)CCN1C(=O)c1ccccc1CCc1ccccc1` (stereo not given), the figure is > 100 µM (inactive). `Cn1c(SCc2c(F)cccc2Cl)nc2c(c1=O)SCC2`: the CC50 in assay [5] was > 40 µM (active). On to `O=C1CC2(CCCC2)CC(=O)N1CCCCNC[C@H]1COc2ccccc2O1`, for which the AC50 in assay [3] was 79.4 µM (inconclusive). As to `COc1ccccc1N=NNc1ccccc1OC`, in assay [4], the half-inhibitory concentration (IC50) is 90.3 µM (active).

As for `O=C(O)c1cnc2c(ccc3ncc(C(=O)O)c(O)c32)c1O`, the AC50 in assay [3] is 5.01 µM (inconclusive).

For the origin of these results see ChEMBL document CHEMBL1201862, “PubChem BioAssay data set” (2004).
